# According to patent US12622933B2, “Method for improving eye condition” (LAIMU CORPORATION, priority 2022, dated 2026):
# Test system: dry eye patient
# Assay: Peroral administration to a dry eye patient
# Format: in vivo, human
# Details: perorally administered to a dry eye patient; no method or data given
substance,measurement,value
hyaluronic acid,eye condition improving effect,any significant eye condition improving can not be attained
